Experiments:
[1] = tested on: fetal rat lung type II cells; assay: Co-culture of fetal rat type II cells with PGJ2-pretreated myofibroblasts, cell count and RT-PCR for Surfactant Protein B; format: cell-based
Method: FIGS. 14A and 14B show the effect of lipofibroblasts and myofibroblasts on fetal rat type II cell growth and differentiation. Fetal type II cells were co-cultured with lipofibroblasts, myofibroblasts or myofibroblasts pretreated with PGJ2. Cell growth was determined by cell count and differentiation was determined by RT-PCR for Surfactant Protein B. Note that in the presence of lipofibroblasts or myofibroblasts treated with PGJ2 that type II cells grow (see Figure on left) and differentiate (Figure on right) with time in culture. […] Day 1 v subsequent day in culture, *, p<0.05; **; p<0.01; ***,p<0.0001 by Analysis of Variance.
In order to link the process of fibroblast transdifferentiation to alveolarization, we recombined day 19 fetal rat lung type II cells with either P1 lipofibroblasts, P10 myofibroblasts, or P10 myofibroblasts pretreated with PGJ2; PGJ2 induces the transdifferentiation of myofibroblasts to lipofibroblasts (Hu et al. (1995) Proc. Natl. Acad. Sci. USA 92:9856-9860).

[2] = tested on: fetal rat lung fibroblasts (FRLF); assay: PGJ2 treatment of fetal rat lung fibroblasts, spontaneous and hyperoxia-induced lipo-to-myofibroblast transdifferentiation; format: cell-based; conditions: PGJ2 30 µM
Method: e18 (pre-term) and e21 (near term) fetal rat lung fibroblasts were maintained in DMEM+10% fetal bovine serum in 21% (control) or 95% (experimental) O2+5% CO2 in sealed modular incubator chambers (Billups-Rothenberg, Del Mar, Calif.) kept at 37° C. in standard incubators. Modular incubators were flushed for 3 min at a flow rate of 10 liters/min with either 21 or 95% O2+5% CO2 with remainder of the gas mixture as N2. Modular incubators were then sealed and then put in standard cell culture incubators. When confluent, cells were passaged and allowed to grow in 21% O2 for 24 h. Subsequently, control cells were maintained in 21% O2+5% CO2 and experimental cells in 95% O2+5% CO2 in modular incubators as described above This was continued up to passage 5. Passage 1 and 5 cells were studied for the expression of various lipogenic and myogenic markers by reverse transcriptase-polymerase chain reaction (RT-PCR).
RT PCR probes used included-Rat Parathyroid Hormone related Protein Receptor (PTHrPR): 5′ CTCTTCTTGACTGTTGTCGCTGGT (SEQ ID NO:14) and 3′[…] […] Rat alpha Smooth Muscle Actin (SMA). RT-PCR was carried out for 2 hours at 37° C. in 50 mM Tris buffer, pH 8.3 containing 75 mM KCl, 3 mM MgCl2 and 10 mM DTT. […] The cDNA is adjusted to equal concentrations as assessed by the PCR of the constitutively expressed gene, GAPDH (rat lung GAPDH). […]

Myofibroblasts (P10s) = assay: PGJ2 treatment of P10 myofibroblasts, lipofibroblast marker expression; format: cell-based, rat; conditions: PGJ2 30 µM, up to 144 hours (FIG. 13)
d18 FRLFs = assay: Antioxidant pretreatment of FRLFs exposed to hyperoxia, ADRP mRNA expression; format: cell-based, rat; conditions: 95% O2 for 24 h, one hour antioxidant pretreatment
Method: RT-PCR was carried out for 2 hours at 37° C. in 50 mM Tris buffer, pH 8.3 containing 75 mM KCl, 3 mM MgCl2 and 10 mM DTT. The total volume of incubation was 20 μl and it contained 0.5 mM each of dNTP, 20 U of RNasin, 25 pmol of oligo(dt) primer and 200 U of Moroney murine leukemia virus reverse transcriptase. […] The cDNA is adjusted to equal concentrations as assessed by the PCR of the constitutively expressed gene, GAPDH (rat lung GAPDH). […]

[3] = tested on: E19 fetal rat lung fibroblasts; assay: PTHrP treatment of fetal rat lung fibroblasts, ADRP mRNA by competitive RT-PCR; format: cell-based; conditions: 0.5 µM PTHrP (printed 0.5:M), 15 hours, normalized to GAPDH
[4] = tested on: E21 fetal rat lung lipofibroblasts; assay: PTHrP treatment of serially passaged (P4) transdifferentiating lipofibroblasts, marker expression by competitive RT-PCR; format: cell-based; conditions: PTHrP 0.5 µM, compared with P1

## CCCCC[C@H](O)/C=C/[C@H]1C(=O)C=C[C@@H]1C/C=C\CCCC(=O)O [PGJ2, prostaglandin J2]
[1]; type II cells co-cultured with PGJ2-treated P10 myofibroblasts
  Surfactant Protein-B expression by type II cells: comparable to that by lipofibroblasts
[1]; type II cells co-cultured with PGJ2 pre-treated P10 myofibroblasts, 5 day culture
  type II cell proliferation (cell number): comparable to that of primary lipofibroblasts
[2]; 24 h treatment
  hyperoxia induced lipo-to-myofibroblast transdifferentiation: partially blunts
[2]; up to 72 h in culture
  spontaneous decrease in ADRP mRNA expression: attenuated
Myofibroblasts (P10s)
  expression of ADRP by P10 myofibroblasts: increased the expression of ADRP

## superoxide dismutase
d18 FRLFs
  prevention of hyperoxia-induced decrease in ADRP mRNA expression: ineffective

## PTHrP: Parathyroid Hormone-related Protein; PTHrP (1-34) and PTHrP (7-34) amide were obtained from Bachem
[3]
  ADRP expression: inducing ADRP expression
[4]; P4 lipofibroblasts, 24 hour treatment
  alpha SMA expression: decreased alpha SMA expression down to levels comparable to those observed for P1s
[4]; lipofibroblasts treated at Passage 4 for 24 hours
  PTHrP receptor expression (printed in b310 as PTHrP expression): increase in PTHrP expression up to a level comparable to that of P1s

— patent publication US8293479B2, “Use of parathyroid hormone-related protein(PTHRP) in the diagnosis and treatment of chronic lung disease and other pathologies” (Los Angeles Biomedical Research Institute at Harbor UCLA …, priority 2002, dated 2012)
